We go through seven compounds from patent publication US4126616A, “N-propylnorapomorphine diesters” (Hinshaw; William B., priority 1976, dated 1978).

SMILES strings stand for the structures. Structures can show the parent of a compound that is named as a salt. Where two headings read alike, the source gives them in different places. Bounds are passed on as bounds.

The test system of this assay is caudate lesioned mouse. In words: caudate lesioned mouse test (anti-parkinson activity). Format: in vivo. The conditions noted are these: for ED50: caudate lesioned mouse; for responders at 13 µmol/kg: dose 0.013 m. mole/kg; for responders at 132 µmol/kg: dose 0.132 m. mole/kg; for Molar Potency Ratio Claimed/Ref. Ester: claimed N-propyl ester vs corresponding N-methyl reference ester. The protocol: An index of anti-parkinson activity was determined using the caudate lesioned mouse test described by Lotti, Life Sci., 10, 781-789 (1971). The mice having unilateral lesions of the caudate nucleus prepared according to the method of Lotti supra were observed immediately after the surgical procedure for strong postural asymmetries directed to the same side as the lesion. When this asymmetry was not observed, the mice were discarded. Operated mice were allowed at least 14 days to recover prior to drug testing. The lesioned mice were tested with apomorphine using 1.7 mg./kg. of base administered intraperitoneally in a 1% suspension in gum tragacanth. […] Only those mice which twisted or circled toward the lesioned side in all three test periods after the apomorphine injection were retained for further drug testing. The test drugs were all administered in 1% gum tragacanth suspension in a volume of 0.1 ml./10 g. of body weight. Doses were expressed in mg./kg. of free base.
Results of tests in the caudate lesioned mouse test described above which were obtained on the compounds of the invention are given in the table below identified, in each case, by the example numbers above where their preparations are described. Corresponding data for reference apomorphine diesters described in German patent application No. 2,154,162 are given in a side-by-side relationship for a number of the species. The reference compounds, designated Ref. 1, Ref. 1B, Ref. 1C, Ref. 1D, Ref. 1E, Ref. 1F, Ref. 2 and Ref. 2A correspond, respectively, to the compounds of the invention identified by Examples 1, 1B, 1C, 1D, 1E, 1F, 2 and 2A and differ from the latter only in having a methyl group on the apomorphine nitrogen from instead of an n-propyl group as present in the instant compounds.

The mark [1] stands for this setting: Mus musculus, 0.5 h, 1/2 h post-drug, read-out: No. Mice Affected/No. Mice Tested, 1/2 h (converted).
The mark [2] stands for this setting: Mus musculus, 0.5 h, dose 0.026 m. mole/kg, 1/2 h post-drug, read-out: No. Mice Affected/No. Mice Tested, 1/2 h (converted).
Where [3] appears, read: Mus musculus, 1 h post-drug, read-out: No. Mice Affected/No. Mice Tested, 1 h (converted).
Where [4] appears, read: Mus musculus, 2 h post-drug, read-out: No. Mice Affected/No. Mice Tested, 2 h (converted).
[5] abbreviates: Mus musculus, 4 h post-drug, read-out: No. Mice Affected/No. Mice Tested, 4 h (converted).
Setting [6] is: Mus musculus, total, read-out: No. Mice Affected/No. Mice Tested, Total (converted).
Setting [7] is: Mus musculus, dose 0.026 m. mole/kg, 1 h post-drug, read-out: No. Mice Affected/No. Mice Tested, 1 h (converted).
Where [8] appears, read: Mus musculus, dose 0.026 m. mole/kg, 2 h post-drug, read-out: No. Mice Affected/No. Mice Tested, 2 h (converted).
The mark [9] stands for this setting: Mus musculus, dose 0.026 m. mole/kg, 4 h post-drug, read-out: No. Mice Affected/No. Mice Tested, 4 h (converted).
The mark [10] stands for this setting: Mus musculus, dose 0.026 m. mole/kg, 6 h post-drug, read-out: No. Mice Affected/No. Mice Tested, 6 h (converted).
Where [11] appears, read: Mus musculus, dose 0.026 m. mole/kg, 24 h post-drug, read-out: No. Mice Affected/No. Mice Tested, 24 h.
[12] abbreviates: Mus musculus, dose 0.026 m. mole/kg, total, read-out: No. Mice Affected/No. Mice Tested, Total (converted).
[13] abbreviates: Mus musculus, 6 h post-drug, read-out: No. Mice Affected/No. Mice Tested, 6 h (converted).
Setting [14] is: Mus musculus, 24 h post-drug, read-out: No. Mice Affected/No. Mice Tested, 24 h (converted).
Where [15] appears, read: Mus musculus, 0.5 h, read-out: No. Mice Affected/No. Mice Tested, 1/2 h.
[16] abbreviates: Mus musculus, 1 h, read-out: No. Mice Affected/No. Mice Tested, 1 h.
Where [17] appears, read: Mus musculus, 2 h, read-out: No. Mice Affected/No. Mice Tested, 2 h.
Setting [18] is: Mus musculus, 4 h, read-out: No. Mice Affected/No. Mice Tested, 4 h.
Where [19] appears, read: Mus musculus, 6 h, read-out: No. Mice Affected/No. Mice Tested, 6 h.
The mark [20] stands for this setting: Mus musculus, 24 h, read-out: No. Mice Affected/No. Mice Tested, 24 h.
Where [21] appears, read: Mus musculus, read-out: No. Mice Affected/No. Mice Tested, Total.
Where [22] appears, read: Mus musculus, 0.5 h, dose 0.052 m. mole/kg, 1/2 h post-drug, read-out: No. Mice Affected/No. Mice Tested, 1/2 h (converted).
Where [23] appears, read: Mus musculus, dose 0.052 m. mole/kg, 1 h post-drug, read-out: No. Mice Affected/No. Mice Tested, 1 h (converted).
Setting [24] is: Mus musculus, dose 0.052 m. mole/kg, 4 h post-drug, read-out: No. Mice Affected/No. Mice Tested, 4 h (converted).
[25] abbreviates: Mus musculus, dose 0.052 m. mole/kg, 6 h post-drug, read-out: No. Mice Affected/No. Mice Tested, 6 h (converted).
[26] abbreviates: Mus musculus, dose 0.052 m. mole/kg, 24 h post-drug, read-out: No. Mice Affected/No. Mice Tested, 24 h.
Setting [27] is: Mus musculus, dose 0.052 m. mole/kg, total, read-out: No. Mice Affected/No. Mice Tested, Total (converted).

For the compound `CCCN1CCc2cccc3c2C1Cc1ccc(OC(=O)C2CC2)c(OC(=O)C2CC2)c1-3` (stereo not drawn) [Ex. 1M, N-Propylnorapomorphine bis-cyclopropanecarboxylate], the median effective dose (ED50) (read-out: ED50) came to 13 µmol/kg. Further, the responders at 13 µmol/kg is 50% under setting [1]; 50% under setting [3]; 50% under setting [4]; 25% under setting [5]; 0% (Mus musculus, 6 h post-drug, read-out: No. Mice Affected/No. Mice Tested, 6 h); 0% (Mus musculus, 24 h post-drug, read-out: No. Mice Affected/No. Mice Tested, 24 h). Also, the responders at 13 µmol/kg under setting [6] was 50%. Moreover, the responders at 26 µmol/kg is, setting by setting: under setting [2], 100%; under setting [7], 75%; under setting [8], 75%; under setting [9], 75%; under setting [10], 75%; under setting [11], 0%. In addition, under setting [12], the responders at 26 µmol/kg was 100%. The responders at 132 µmol/kg is, setting by setting: under setting [1], 100%; under setting [3], 100%; under setting [4], 100%; under setting [5], 100%; under setting [13], 100%; under setting [14], 100%. The responders at 132 µmol/kg under setting [6] is 100%.

As for `CCC(=O)Oc1ccc2c(c1OC(=O)CC)-c1cccc3c1C(C2)N(C)CC3` (stereo not drawn) [Ref. 1, reference compound], the responders at 26 µmol/kg is, setting by setting: under setting [15], 0%; under setting [16], 0%; under setting [17], 0%; under setting [18], 0%; under setting [19], 0%; under setting [20], 0%. Moreover, the responders at 26 µmol/kg under setting [21] amounted to 0%. Further, the responders at 52 µmol/kg by setting is: under setting [15], 25%; under setting [16], 25%; under setting [17], 0%; under setting [18], 0%; under setting [19], 0%; under setting [21], 25%. For the same compound, the responders at 104 µmol/kg is 41.7% under setting [15]; 41.7% under setting [16]; 0% under setting [17]; 0% under setting [18]; 0% under setting [19]; 41.7% under setting [21]. Moreover, the responders at 208 µmol/kg was 100% under setting [15]; 100% under setting [16]; 100% under setting [17]; 50% under setting [18]; 0% under setting [19]; 0% under setting [20]. Moreover, the responders at 208 µmol/kg under setting [21] is 100%. This compound displayed an ED50 (Mus musculus) of 98 µmol/kg.

On to `CCCN1CCc2cccc3c2C1Cc1ccc(OC(=O)c2ccccc2)c(OC(=O)c2ccccc2)c1-3` (stereo not drawn) [Ex. 1E, N-Propylnorapomorphine dibenzoate hydrochloride], for which the “Molar Potency Ratio Claimed/Ref. Ester” value is ≥ 8. In addition, under setting [22], the responders at 52 µmol/kg was 0%. The responders at 52 µmol/kg under setting [23] was 0%. The responders at 52 µmol/kg under setting [24] was 66.7%. In addition, the responders at 52 µmol/kg under setting [25] is 33.3%. For the same compound, the responders at 52 µmol/kg under setting [26] was found to be 0%. The responders at 52 µmol/kg under setting [27] is 66.7%.

For the compound `CCCC(=O)Oc1ccc2c(c1OC(=O)CCC)-c1cccc3c1C(C2)N(CCC)CC3` (stereo not drawn) [Ex. 1A, N-Propylnorapomorphine dibutanoate], the responders at 26 µmol/kg runs as follows: under setting [2], 0%; under setting [7], 0%; under setting [8], 0%; under setting [9], 0%; under setting [10], 0%; under setting [11], 0%. For the same compound, the responders at 26 µmol/kg under setting [12] was 0%. Moreover, the responders at 132 µmol/kg runs as follows: under setting [1], 50%; under setting [3], 100%; under setting [4], 100%; under setting [5], 100%; under setting [13], 100%; under setting [14], 100%. Moreover, the responders at 132 µmol/kg under setting [6] is 100%.

In the case of `CCCCCCCCCCCCCCCC(=O)Oc1ccc2c(c1OC(=O)CCCCCCCCCCCCCCC)-c1cccc3c1C(C2)N(CCC)CC3` (stereo not drawn) [Ex. ID, N-Propylnorapomorphine dihexadecanoate], the “Molar Potency Ratio Claimed/Ref. Ester” value is ≥ 8. Besides, under setting [22], the responders at 52 µmol/kg is 0%. Besides, the responders at 132 µmol/kg under setting [1] is 0%. Under setting [23], the responders at 52 µmol/kg is 0%. Besides, the responders at 52 µmol/kg under setting [24] was 25%. The responders at 52 µmol/kg under setting [25] is 25%. Under setting [26], the responders at 52 µmol/kg stood at 0%. The responders at 52 µmol/kg under setting [27] is 25%. The responders at 132 µmol/kg under setting [3] is 0%. Moreover, under setting [5], the responders at 132 µmol/kg was 100%. The responders at 132 µmol/kg under setting [13] is 0%. For the same compound, the responders at 132 µmol/kg under setting [14] was 33.3%. Also, the responders at 132 µmol/kg under setting [6] is 100%.

Turning to `CC(C)C(=O)Oc1ccc2c(c1OC(=O)C(C)C)-c1cccc3c1C(C2)N(C)CC3` (stereo not drawn) [Ref. 1B, reference compound], the responders at 208 µmol/kg is, setting by setting: under setting [15], 0%; under setting [16], 0%; under setting [18], 25%; under setting [19], 0%; under setting [20], 0%; under setting [21], 25%.

Regarding `CCCN1CCc2cccc3c2C1Cc1ccc(OC(C)=O)c(OC(C)=O)c1-3` (stereo not drawn) [Ex. 2, N-propylnorapomorphine diacetate], the “Molar Potency Ratio Claimed/Ref. Ester” value is given as ≥ 16. Under setting [15], the responders at 26 µmol/kg was 100%, the responders at 52 µmol/kg is 25% and the responders at 104 µmol/kg is 50%. Under setting [16], the responders at 26 µmol/kg is 100%, the responders at 52 µmol/kg is 25% and the responders at 104 µmol/kg was 75%. Under setting [18], the responders at 26 µmol/kg was 50%, the responders at 52 µmol/kg was 25% and the responders at 104 µmol/kg is 25%. Moreover, under setting [19], the responders at 26 µmol/kg was 100%, the responders at 52 µmol/kg is 75% and the responders at 104 µmol/kg was 50%. Also, under setting [20], the responders at 26 µmol/kg was 50%, the responders at 52 µmol/kg was found to be 0% and the responders at 104 µmol/kg is 50%. Besides, under setting [21], the responders at 26 µmol/kg was 100%, the responders at 52 µmol/kg is 75% and the responders at 104 µmol/kg was 75%.

As a reminder, the ED50 is the dose at which the effect has come halfway, by size or by number of responders.
